US7534891B2, “Quinoline derivatives as H3R inverse agonists” (Hoffman-La Roche Inc., priority 2004, dated 2009)

Biological target: T1, histamine 3 receptor (H3R), human HR3-CHO membranes (Homo sapiens, UniProt Q9Y5N1)
T1 construct: expressed in transfected cells; host or cells: CHO cells (HR3-CHO cell line), membrane preparation
Assay: Competition binding assay with 3H-(R)α-methylhistamine on membranes of the human HR3-CHO cell line
Conditions: displacement of 3H-(R)α-methylhistamine (1 nM), membrane of human HR3-CHO cell line; Ki calculated from IC50 by Cheng-Prusoff
Method: Binding Assay with ^3H-(R)α-methylhistamine
Saturation binding experiments were performed using HR3-CHO membranes prepared as described in Takahashi, K, Tokita, S., Kotani, H. (2003) J. Pharmacol. Exp. Therapeutics 307, 213-218.
An appropriate amount of membrane (60 to 80 μg protein/well) was incubated with increasing concentrations of ^3H(R)α-Methylhistamine di-hydrochloride (0.10 to 10 nM). Non specific binding was determined using a 200 fold excess of cold (R)(X-Methylhistamine dihydrobromide (500 nM final concentration). The incubation was carried out at room temperature (in deep-well plates shaking for three hours). The final volume in each well was 250 pt. The incubation was followed by rapid filtration on GF/B filters (pre-soaked with 100 W of 0.5% PEI in Tris 50 mM shaking at 200 rpm for two hours). The filtration was made using a cell-harvester and the filter plates were then washed five times with ice cold washing buffer containing 0.5 M NaCl. After harvesting, the plates were dried at 55° C. for 60 min, then we added scintillation fluid (Microscint 40, 40 microl in each well) and the amount of radioactivity on the filter was determined in Packard top-counter after shaking the plates for two hours at 200 rpm at room temperature.
Binding Buffer: 50 mM Tris-HCl pH 7.4 and 5 mM MgCl2×6H2O pH 7.4. Washing Buffer: 50 mM Tris-HCl pH 7.4 and 5 mM MgCl2x6H2O and 0.5 M NaCl pH 7.4.
Indirect measurement of affinity of H3R inverse agonists: twelve increasing concentrations (ranging from 10 μM to 0.3 nM) of the selected compounds were always tested in competition binding experiments using membrane of the human HR3-CHO cell line. An appropriate amount of protein, e.g. approximately 500 cpm binding of RAMH at Kd, were incubated for 1 hour at room temperature in 250 μl final volume in 96-well plates in presence of ^3H(R)α-Methylhistamine (1 nM final concentration=Kd). […]
All compounds were tested at a single concentration in duplicates. […] Ki's were calculated from IC50 based on Cheng-Prusoff equation (Cheng, Y, Prusoff, W H (1973) Biochem Pharmacol 22, 3099-3108).

T1 sequence (Q9Y5N1 whole entry): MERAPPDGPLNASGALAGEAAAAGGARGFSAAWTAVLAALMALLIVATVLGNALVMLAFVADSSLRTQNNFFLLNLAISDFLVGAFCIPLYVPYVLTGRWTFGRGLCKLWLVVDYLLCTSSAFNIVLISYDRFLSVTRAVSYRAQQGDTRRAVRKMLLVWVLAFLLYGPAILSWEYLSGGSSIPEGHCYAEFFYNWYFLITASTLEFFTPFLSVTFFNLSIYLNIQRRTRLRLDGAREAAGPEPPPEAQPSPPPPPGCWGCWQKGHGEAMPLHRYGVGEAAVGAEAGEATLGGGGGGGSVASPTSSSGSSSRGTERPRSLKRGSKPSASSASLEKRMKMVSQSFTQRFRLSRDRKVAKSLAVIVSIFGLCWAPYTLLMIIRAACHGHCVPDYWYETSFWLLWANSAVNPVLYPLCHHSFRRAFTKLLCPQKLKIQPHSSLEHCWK

SMILES | Ki [nM]
CC(C)N1CCC(Oc2ccc3nc(C(=O)N4CC=CC4)ccc3c2)CC1 [Example 2, (2,5-dihydro-pyrrol-1-yl)-[6-(1-isopropyl-piperidin-4-yloxy)-quinolin-2-yl]-methanone] | 200
CC(C)N1CCC(Oc2ccc3nc(C(=O)N4CCC4)ccc3c2)CC1 [Example 14, azetidine-1-yl-[6-(1-isopropyl-piperidin-4-yloxy)-quinolin-2-yl]-methanone] | 78
O=C(c1ccc2cc(OCCCN3CCCCC3)ccc2n1)N1CCCC1 [Example 64, [6-(3-piperidin-1-yl-propoxy)-quinolin-2-yl]-pyrrolidin-1-yl-methanone] | 450
